Experimental findings from publication PMC8815882, “Screening the pandemic response box identified benzimidazole carbamates, Olorofim and ravuconazole as promising drug candidates for the treatment of eumycetoma” (PLoS Neglected Tropical Diseases, 2022) are described below.

Read-outs that look alike come from different tables or passages of the source. A value given as a limit tells only on which side of the number the result lay.

For assay [1], the system named is M. mycetomatis genome strain MM55. The assay can be described thus: CLSI M38-A2 based in vitro susceptibility screening (XTT or resazurin), growth at fixed concentration. Format: cell-based, Madurella mycetomatis. The following applies: Madurella mycetomatis; for Percent fungal survival at 100 µM: read-out: Percentage survival at 100um, 100 uM A (second replicate column). (In general: Tetrazolium dyes change colour on reduction, which living cells bring about.)

Assay [2] has as its system M. mycetomatis MM55. Description: IC50 determination, 2-fold dilution series 16 to 0.03125 μM. Format: cell-based, Madurella mycetomatis. As to conditions: for IC50 / IC90: Madurella mycetomatis.
Setting [3] is: MM55, mean of replicates, read-out: IC50 mean.
[4] abbreviates: MM55, replicate 1, read-out: IC50 1 um.
The mark [5] stands for this setting: MM55, replicate 2, read-out: IC50 2 um.
Setting [6] is: MM55, replicate 3, read-out: IC50 3 um.
Setting [7] is: mean of three replicates, read-out: Percentage survival at 25um, 25 uM mean.
Setting [8] is: replicate A, read-out: Percentage survival at 25um, 25 um A.
Where [9] appears, read: replicate B, read-out: Percentage survival at 25um, 25 uM B.
[10] abbreviates: replicate C, read-out: Percentage survival at 25um, 25 uM C.
The mark [11] stands for this setting: mean of three replicates, read-out: Percentage survival at 100um, 100 uM mean.
The mark [12] stands for this setting: replicate 1, read-out: Percentage survival at 100um, 100 uM A (first replicate column).
The mark [13] stands for this setting: replicate 3, read-out: Percentage survival at 100um, 100 uM A (third replicate column).
[14] abbreviates: MM55, mean of three replicates, read-out: IC50 mean.
[15] abbreviates: MM55, mean of three replicates, read-out: IC90 mean.
The mark [16] stands for this setting: MM55, replicate 1, read-out: IC90 1 um.
The mark [17] stands for this setting: MM55, replicate 2, read-out: IC90 2 um.
Where [18] appears, read: MM55, replicate 3, read-out: IC90 3 um.
Where [19] appears, read: mean, read-out: Percentage survival at 25um, 25 uM mean.
[20] abbreviates: mean, read-out: Percentage survival at 100um, 100 uM mean.
Where [21] appears, read: replicate (first column), read-out: Percentage survival at 100um, 100 uM A.
[22] abbreviates: replicate (second column), read-out: Percentage survival at 100um, 100 uM A.
Setting [23] is: replicate (third column), read-out: Percentage survival at 100um, 100 uM A.
Setting [24] is: MM55, replicate 1, read-out: IC50 1.
Where [25] appears, read: MM55, replicate 1, read-out: IC90 1.
Where [26] appears, read: MM55, replicate 2, read-out: IC50 2.
Setting [27] is: MM55, replicate 2, read-out: IC90 2.
Where [28] appears, read: MM55, replicate 3, read-out: IC50 3.
The mark [29] stands for this setting: MM55, replicate 3, read-out: IC90 3.
Where [30] appears, read: MM55, mean, read-out: IC50 mean.

As for `COc1cc(NS(=O)(=O)c2ccc(C)cc2)c2ncccc2c1` [MMV098836], the activity at 25 µM was 6.7% in assay [1] (mean of replicates, MM55, read-out: Percentage survival at 25um, 25 uM mean); 6.32% in assay [1] (replicate A, MM55, read-out: Percentage survival at 25um, 25 um A); -0.482% in assay [1] (replicate B, MM55, read-out: Percentage survival at 25um, 25 uM B); 14.3% in assay [1] (replicate C, MM55, read-out: Percentage survival at 25um, 25 uM C). Moreover, the activity at 100 µM in assay [1] (mean of replicates, MM55, read-out: Percentage survival at 100um, 100 uM mean) was found to be 6.45%; in assay [1] (replicate 1, MM55, read-out: Percentage survival at 100um, 100 uM A) it was 4.22%; in assay [1] (replicate 2, MM55, read-out: Percentage survival at 100um, 100 uM A), 0.942%; in assay [1] (replicate 3, MM55, read-out: Percentage survival at 100um, 100 uM A) it was 14.2%. The “Drug static or cidal” value in assay [2] was “Static”. Further, the IC50 in assay [2] (setting [3]), in assay [2] (setting [4]), in assay [2] (setting [5]) and in assay [2] (setting [6]) was over 25 µM in each case. In addition, the 90% effect concentration (IC90) (as a rule, the point of the concentration-response curve where the effect stands at 90%) is over 25 µM in assay [2] (MM55, IC90, mean of replicates, read-out: IC90 mean); over 25 µM in assay [2] (MM55, IC90, replicate 1, read-out: IC90 1 um); over 25 µM in assay [2] (MM55, IC90, replicate 2, read-out: IC90 2 um); over 25 µM in assay [2] (MM55, IC90, replicate 3, read-out: IC90 3 um).
For `Oc1c(C(Nc2ccccn2)c2ccccc2)ccc2cccnc12` (stereo not drawn) [MMV565773], the activity at 25 µM in assay [1] (setting [7]) was 15.4%; in assay [1] (setting [8]) it was 9.67%; in assay [1] (setting [9]), 6.46%; in assay [1] (setting [10]), 30.1%. For the same compound, the results for the activity at 100 µM in assay [1] (setting [11]), in assay [1] (setting [12]) and in assay [1] (setting [13]) were 11.7%, 9.08% and 17.8%, respectively. In assay [1] (replicate 2), the Percent fungal survival at 100 µM is 8.24%. The “Drug static or cidal” value in assay [2] was “Cidal”. In addition, the 50% inhibitory concentration (IC50) – broadly, the point on the concentration scale where inhibition reaches its midpoint – was 16.3 µM in assay [2] (setting [14]), 16.5 µM in assay [2] (setting [4]), 15.9 µM in assay [2] (setting [5]) and 16.6 µM in assay [2] (setting [6]). The IC90 in assay [2] (setting [15]) is 24.5 µM; in assay [2] (setting [16]), 24.2 µM; in assay [2] (setting [17]), 24.9 µM; in assay [2] (setting [18]) it was 24.4 µM.
In the case of `O=[N+]([O-])/C(Br)=C/c1ccc(Br)o1` [MMV1645051], the activity at 25 µM was 1.68% in assay [1] (setting [19]), 2.2% in assay [1] (setting [8]), -0.118% in assay [1] (setting [9]) and 2.96% in assay [1] (setting [10]). The activity at 100 µM in assay [1] (setting [20]) is 7.68%; in assay [1] (setting [21]) it was -0.809%; in assay [1] (setting [22]) it was 7.74%; in assay [1] (setting [23]), 16.1%. Moreover, the “Drug static or cidal” value in assay [2] is “Static”. Also, the IC90 is over 25 µM in assay [2] (MM55, read-out: IC90 mean); over 25 µM in assay [2] (setting [25]); over 25 µM in assay [2] (setting [27]); over 25 µM in assay [2] (setting [29]). Moreover, the figures for the 50% inhibitory concentration (IC50) in assay [2] (setting [24]), in assay [2] (setting [26]) and in assay [2] (setting [28]) were over 25 µM, 23 µM and over 25 µM, respectively.
As to `Cc1nc2ccc(Oc3ccccc3)cc2c2c1CCN2CCc1ccccc1` [MMV1634399], the activity at 25 µM in assay [1] (setting [7]) was 3.88%; in assay [1] (setting [8]), -3.19%; in assay [1] (setting [9]) it was -1.6%; in assay [1] (setting [10]), 16.4%. Moreover, the activity at 100 µM in assay [1] (setting [11]) came out at 0.985%; in assay [1] (setting [12]), 1.91%; in assay [1] (setting [13]), 1.92%. For the same compound, the Percent fungal survival at 100 µM in assay [1] (replicate 2) is -0.867%. In addition, in assay [2], the “Drug static or cidal” value is on record as “Cidal”. For the same compound, the half-inhibitory concentration (IC50) in assay [2] (setting [14]) turned out to be 11.8 µM; in assay [2] (setting [4]), 14.2 µM; in assay [2] (setting [5]), 9.8 µM; in assay [2] (setting [6]), 11.2 µM. Besides, the concentration for an effect of 90% (IC90) in assay [2] (setting [15]) worked out at 22 µM; in assay [2] (setting [16]), 22.3 µM; in assay [2] (setting [17]), 22.7 µM; in assay [2] (setting [18]) it was 21 µM.
Take `Cc1ccc(Oc2ccccc2-c2csc(NC3=NCCCN3)n2)c(C)c1` [MMV1634493]: the activity at 25 µM in assay [1] (setting [19]) is 13.4%; in assay [1] (setting [8]), 34.1%; in assay [1] (setting [9]), 1.37%; in assay [1] (setting [10]), 4.64%. The activity at 100 µM came to 5.01% in assay [1] (setting [20]), 1.69% in assay [1] (setting [21]), 6.56% in assay [1] (setting [22]) and 6.77% in assay [1] (setting [23]). The “Drug static or cidal” value in assay [2] is “Static”. For the same compound, the IC50 in assay [2] (setting [30]), in assay [2] (setting [24]), in assay [2] (setting [26]) and in assay [2] (setting [28]) was over 25 µM throughout. Moreover, the 90% effect concentration (IC90) was over 25 µM in assay [2] (MM55, read-out: IC90 mean); over 25 µM in assay [2] (setting [25]); over 25 µM in assay [2] (setting [27]); over 25 µM in assay [2] (setting [29]).
On to `O=S(=O)(Nc1cccc2cccnc12)c1ccccc1` [MMV1578890], for which the activity at 25 µM was determined as 2.42% in assay [1] (mean of three, M. mycetomatis MM55, read-out: Percentage survival at 25um, 25 uM mean); 2.33% in assay [1] (replicate A, M. mycetomatis MM55, read-out: Percentage survival at 25um, 25 um A); 0.789% in assay [1] (replicate B, M. mycetomatis MM55, read-out: Percentage survival at 25um, 25 uM B); 4.13% in assay [1] (replicate C, M. mycetomatis MM55, read-out: Percentage survival at 25um, 25 uM C). For the same compound, the activity at 100 µM in assay [1] (mean of three, M. mycetomatis MM55, read-out: Percentage survival at 100um, 100 uM mean) worked out at 29.9%; in assay [1] (replicate 1, M. mycetomatis MM55, read-out: Percentage survival at 100um, 100 uM A (first replicate column)), 1.58%; in assay [1] (replicate 3, M. mycetomatis MM55, read-out: Percentage survival at 100um, 100 uM A (third replicate column)), 6.47%. For the same compound, in assay [1] (replicate 2, M. mycetomatis MM55), the Percent fungal survival at 100 µM stood at 81.7%. For the same compound, the “Drug static or cidal” value in assay [2] (M. mycetomatis) is “Static”. Moreover, the IC50 in assay [2] (setting [3]) was determined as 10.5 µM; in assay [2] (setting [4]), 6.8 µM; in assay [2] (setting [5]) it was 12.5 µM; in assay [2] (setting [6]), 12.1 µM. Further, the IC90 in assay [2] (MM55, mean of replicates, read-out: IC90 mean) was 22.7 µM; in assay [2] (setting [16]), 23.7 µM; in assay [2] (setting [17]) it was 22.2 µM; in assay [2] (setting [18]), 22.2 µM.
Turning to `CC(C)Oc1ccc(-c2nc(-c3cccc4c3CC[C@@H]4NCCO)no2)cc1C#N` [MMV1580492], the activity at 25 µM in assay [1] (setting [7]) was -6.9%; in assay [1] (setting [8]), -14.6%; in assay [1] (setting [9]) it was -6.47%; in assay [1] (setting [10]) it was 0.368%. The activity at 100 µM in assay [1] (setting [11]) was 2.78%; in assay [1] (setting [12]) it was -1.25%; in assay [1] (setting [13]) it was 12%. Besides, the Percent fungal survival at 100 µM in assay [1] (replicate 2) was -2.44%. In addition, the “Drug static or cidal” value in assay [2] is listed as “Cidal”. Besides, the IC50 in assay [2] (setting [14]), in assay [2] (setting [4]), in assay [2] (setting [5]) and in assay [2] (setting [6]) was over 25 µM in each case. Also, the IC90 in assay [2] (setting [15]), in assay [2] (setting [16]), in assay [2] (setting [17]) and in assay [2] (setting [18]) was over 25 µM in each case.
With `CCOC(=O)Nc1cc(NC(C)CC(C)CN(CC)CC)c2nc(-c3ccccc3)c(-c3ccccc3)nc2n1` (stereo not drawn) [MMV1633967], the activity at 25 µM was -1.71% in assay [1] (setting [19]), -4.99% in assay [1] (setting [8]), 0.0169% in assay [1] (setting [9]) and -0.146% in assay [1] (setting [10]). Moreover, the activity at 100 µM in assay [1] (setting [20]) worked out at 60.2%; in assay [1] (setting [21]) it was 73.9%; in assay [1] (setting [22]) it was 96.6%; in assay [1] (setting [23]), 10.1%. Also, in assay [2], the “Drug static or cidal” value is “Static”. Moreover, the 50% inhibitory concentration (IC50) in assay [2] (setting [30]), in assay [2] (setting [24]), in assay [2] (setting [26]) and in assay [2] (setting [28]) was over 25 µM in each case. Also, the IC90 in assay [2] (MM55, read-out: IC90 mean) was over 25 µM; in assay [2] (setting [25]), over 25 µM; in assay [2] (setting [27]), over 25 µM; in assay [2] (setting [29]), over 25 µM.
